In article PMC3701955 (Bioorganic & medicinal chemistry, 2012):

Tests used:
human OTR = biological target: T1, human OTR (Homo sapiens, UniProt P30559); type: binding; details: human receptors
T1 sequence (P30559 1-389): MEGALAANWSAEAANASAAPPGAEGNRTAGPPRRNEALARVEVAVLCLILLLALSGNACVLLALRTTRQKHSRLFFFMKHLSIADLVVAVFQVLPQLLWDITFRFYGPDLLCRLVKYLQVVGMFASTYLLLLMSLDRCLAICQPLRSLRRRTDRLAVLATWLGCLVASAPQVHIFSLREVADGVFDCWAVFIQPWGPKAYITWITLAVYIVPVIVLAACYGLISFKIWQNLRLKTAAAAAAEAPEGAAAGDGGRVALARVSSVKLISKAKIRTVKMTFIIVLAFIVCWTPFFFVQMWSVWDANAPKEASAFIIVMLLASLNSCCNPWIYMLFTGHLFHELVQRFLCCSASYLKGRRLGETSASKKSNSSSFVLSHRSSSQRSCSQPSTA

rodent OTR = details: prairie vole brain sections
human V1aR = human V1aR (Homo sapiens, UniProt P37288); type: binding; details: competition with [3H]-AVP, NIMH PDSP
Sequence of human V1aR (P37288 whole entry): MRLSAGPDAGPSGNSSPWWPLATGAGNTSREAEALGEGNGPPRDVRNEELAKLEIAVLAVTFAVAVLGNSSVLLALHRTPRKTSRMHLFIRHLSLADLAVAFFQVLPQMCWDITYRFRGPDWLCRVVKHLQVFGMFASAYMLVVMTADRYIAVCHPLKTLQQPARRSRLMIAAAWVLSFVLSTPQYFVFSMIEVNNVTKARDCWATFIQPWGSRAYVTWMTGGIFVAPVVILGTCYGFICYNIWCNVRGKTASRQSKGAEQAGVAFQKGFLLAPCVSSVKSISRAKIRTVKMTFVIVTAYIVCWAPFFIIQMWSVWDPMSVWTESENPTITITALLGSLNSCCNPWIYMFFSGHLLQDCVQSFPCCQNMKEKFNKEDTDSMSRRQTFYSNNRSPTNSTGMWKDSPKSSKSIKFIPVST

[1] = biological target: T2, human vasopressin receptor V1b (Homo sapiens, UniProt P47901); type: binding; details: competition with [3H]-AVP, NIMH PDSP
T2 sequence (P47901 1-424): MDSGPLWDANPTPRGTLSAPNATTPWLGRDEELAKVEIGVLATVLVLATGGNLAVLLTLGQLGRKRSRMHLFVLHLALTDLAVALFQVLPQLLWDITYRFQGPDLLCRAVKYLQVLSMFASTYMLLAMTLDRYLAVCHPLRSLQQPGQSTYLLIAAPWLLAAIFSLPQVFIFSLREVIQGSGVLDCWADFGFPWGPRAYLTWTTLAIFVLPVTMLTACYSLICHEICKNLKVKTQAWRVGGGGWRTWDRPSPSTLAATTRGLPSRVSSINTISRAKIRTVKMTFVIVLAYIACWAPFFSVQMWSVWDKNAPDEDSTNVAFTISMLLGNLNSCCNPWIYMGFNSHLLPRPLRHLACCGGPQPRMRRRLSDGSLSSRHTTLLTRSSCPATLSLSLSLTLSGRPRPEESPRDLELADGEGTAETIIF

[2] = biological target: human vasopressin receptor V2 (Homo sapiens, UniProt P30518); type: binding; details: competition with [3H]-AVP, NIMH PDSP
Sequence of human vasopressin receptor V2 (P30518 whole entry): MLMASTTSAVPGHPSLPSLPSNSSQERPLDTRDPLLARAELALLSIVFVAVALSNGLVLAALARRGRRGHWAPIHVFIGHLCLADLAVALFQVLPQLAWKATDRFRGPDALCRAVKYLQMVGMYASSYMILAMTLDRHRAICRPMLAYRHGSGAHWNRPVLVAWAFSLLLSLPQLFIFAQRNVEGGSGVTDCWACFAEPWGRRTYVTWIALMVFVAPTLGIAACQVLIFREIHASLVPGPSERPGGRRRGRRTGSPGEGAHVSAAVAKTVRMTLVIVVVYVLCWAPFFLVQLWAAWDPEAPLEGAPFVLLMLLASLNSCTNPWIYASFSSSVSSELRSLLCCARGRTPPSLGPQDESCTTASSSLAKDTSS

[3] = cited from earlier work

CS(=O)(=O)N1CCC(Oc2ccc(CC(=O)N3CCC(N4C(=O)CCc5ccccc54)CC3)c(OC/C=C/I)c2)CC1 [Compound 1, (E)-1-(1-(2-(2-(3-Iodoallyloxy)-4-(1-(methylsulfonyl)piperidin-4-yloxy)phenyl)acetyl)piperidin-4-yl)-3,4-dihydroquinolin-2(1H)-one]
potency for the human OTR over V1aR (human OTR): 79 fold

COc1cc(OC2CCN(S(C)(=O)=O)CC2)ccc1CC(=O)N1CCC(N2C(=O)CCc3ccccc32)CC1 [Compound 4, 1-(1-(2-(2-Methoxy-4-((1-(methylsulfonyl)piperidin-4-yl)oxy)phenyl)acetyl)piperidin-4-yl)-3,4-dihydroquinolin-2(1H)-one]
selectivity for the rodent OTR over V1aR (rodent OTR): four times more selective

CS(=O)(=O)N1CCC(Oc2ccc(CC(=O)N3CCC(N4C(=O)CCc5ccccc54)CC3)c(O)c2)CC1 [Compound 13, 1-(1-(2-(2-Hydroxy-4-(1-(methylsulfonyl)piperidin-4-yloxy)phenyl)acetyl)piperidin-4-yl)-3,4-dihydroquinolin-2(1H)-one]
Ki Human V1aR (human V1aR): no detectable affinity | Ki Human V1b [1]: no detectable affinity | Ki Human V2 [2]: no detectable affinity

COc1cc(OC2CCN(C(C)=O)CC2)ccc1C(=O)N1CCC(N2C(=O)OCc3ccccc32)CC1 [Compound L-371257]
brain penetration [3]: very poor brain penetrant
